Measured values from BigSolDB 2.1.

COC(=O)Nc1nc2ccccc2[nH]1
solubility (mole fraction)
Settings | 278.15 K | 283.15 K | 288.15 K | 293.15 K | 298.15 K | 303.15 K | 308.15 K | 313.15 K | 318.15 K
in DMF | 0.000786 | 0.000861 | 0.000931 | 0.00101 | 0.0011 | 0.00119 | 0.00128 | 0.00138 | 0.00148
in ethanol | 8.29e-06 | 1.14e-05 | 1.66e-05 | 2.28e-05 | 3.16e-05 | 4.28e-05 | 5.74e-05 | 7.63e-05 | 9.98e-05
in methanol | 3.23e-05 | 4.07e-05 | 5.29e-05 | 6.59e-05 | 7.95e-05 | 9.95e-05 | 0.000121 | 0.000147 | 0.000176
in n-propanol | 3.28e-06 | 4.97e-06 | 8.18e-06 | 1.24e-05 | 1.85e-05 | 2.73e-05 | 4.04e-05 | 5.82e-05 | 8.34e-05
in water | 3.3e-07 | 4e-07 | 4.91e-07 | 6e-07 | 7.35e-07 | 8.59e-07 | 1.02e-06 | 1.21e-06 | 1.43e-06
